Test results: US5041567A, “Antibacterial monic acid derivatives” (Beecham Group plc, priority 1982, dated 1991)
≈ marks a conversion by molar mass, not a printed value. Read-outs that look alike come from different tables or passages of the source.

How the values were obtained:
Bord. bronchiseptica B08 = assay: MIC against veterinary bacteria in vitro; conditions: Bordetella bronchiseptica, B08, 18 h
Description: (§1) The activity of the compounds of the Examples against various veterinarily important bacteria, was assayed in vitro using two-fold serial dilutions in Diagnostic Sensitivity Test Agar inoculated with 10^4 organisms.

M. bovis NCTC 10131 = assay: microbe, parasite or virus in culture; type: cell-based; conditions: NCTC10131, 144 h
[1] = test system: M. suipneumoniae PW/C/210; assay: MIC against mycoplasma in vitro; type: cell-based; conditions: Mesomycoplasma hyopneumoniae, 144 h; M. suipneumoniae PW/C/210; 6 days, 37° C.; read-out: MIC
Past. multocida PA2 = assay: MIC against veterinary bacteria in vitro; conditions: Pasteurella multocida, PA2, 18 h
Description: as §1

Strep. faecalis I = assay: MIC against human bacteria in vitro; type: cell-based; conditions: Enterococcus faecalis; Strep. faecalis I; 5% chocolated horse blood agar, 18 hours; read-out: MIC
M. dispar NCTC 10125 = assay: MIC against mycoplasma in vitro; type: cell-based; conditions: 144 h
S. typhimurium S18 = assay: MIC against veterinary bacteria in vitro; conditions: Salmonella enterica, TYPHIMURIUM, 18 h
Description: as §1

M. suipneumoniae Str. 11 = assay: MIC against mycoplasma in vitro; type: cell-based; conditions: Mesomycoplasma hyopneumoniae
[2] = test system: M. suipneumoniae NCTC 10110; assay: MIC against mycoplasma in vitro; type: cell-based; conditions: Mesomycoplasma hyopneumoniae, NCTC10110, 144 h
Strep. agalactiae 2788-B = assay: MIC against human bacteria in vitro; type: cell-based; conditions: Streptococcus agalactiae; Strep. agalactiae 2788-B; 5% chocolated horse blood agar, 18 hours; read-out: MIC
Staph. aureus Oxford [3] = assay: MIC against human bacteria in vitro; type: cell-based; conditions: Staphylococcus aureus; Staph. aureus Oxford; 5% chocolated horse blood agar, 18 hours; read-out: MIC
M. suipneumoniae TAM 6N = assay: MIC against mycoplasma in vitro; type: cell-based; conditions: Mesomycoplasma hyopneumoniae, TAM6N, 144 h
[4] = test system: Erysipelothrix rhusiopathiae NCTC 8163; assay: MIC against veterinary bacteria in vitro; conditions: Erysipelothrix rhusiopathiae, NCTC8163, 18 h
Description: as §1

[5] = test system: Pasteurella multocida 1633; assay: MIC against human bacteria in vitro; type: cell-based; conditions: Pasteurella multocida 1633; 5% chocolated horse blood agar, 18 hours; read-out: MIC
Staph. aureus Oxford [6] = assay: MIC against veterinary bacteria in vitro; conditions: Staphylococcus aureus, 18 h
Description: as §1

Sarcina lutea 8340 = assay: MIC against human bacteria in vitro; type: cell-based; conditions: Micrococcus luteus; Sarcina lutea 8340; 5% chocolated horse blood agar, 18 hours; read-out: MIC
K. aerogenes A = assay: MIC against human bacteria in vitro; type: cell-based; conditions: Klebsiella aerogenes; K. aerogenes A; 5% chocolated horse blood agar, 18 hours; read-out: MIC
M. hyorhinis ATCC 23234 = assay: MIC against mycoplasma in vitro; type: cell-based; conditions: Mesomycoplasma hyorhinis, ATCC23234, 144 h
[7] = test system: Corynebacterium pyogenes CY1; assay: MIC against veterinary bacteria in vitro; conditions: CY1, 18 h
Description: as §1

M. suipneumoniae NB12 = assay: MIC against mycoplasma in vitro; type: cell-based; conditions: Mesomycoplasma hyopneumoniae
Staph. aureus W2827 = assay: MIC against human bacteria in vitro; type: cell-based; conditions: Staphylococcus aureus; Staph. aureus W2827; 5% chocolated horse blood agar, 18 hours; read-out: MIC
[8] = test system: M. suipneumoniae J2206/183^b; assay: MIC against mycoplasma in vitro; type: cell-based; conditions: Mesomycoplasma hyopneumoniae, 144 h
M. suipneumoniae MS 16 = assay: MIC against mycoplasma in vitro; type: cell-based; conditions: Mesomycoplasma hyopneumoniae, MS16, 144 h
[9] = test system: Staph. aureus B4 (pen. resistant); assay: MIC against veterinary bacteria in vitro; conditions: Staphylococcus aureus, 18 h
Description: as §1

[10] = test system: Strep. suis (group D) SPS11; assay: MIC against veterinary bacteria in vitro; conditions: Streptococcus suis, 18 h
Description: as §1

M. suipneumoniae JF 435 = assay: MIC against mycoplasma in vitro; type: cell-based; conditions: Mesomycoplasma hyopneumoniae, JF435, 144 h
M. gallisepticum S6 = assay: MIC against mycoplasma in vitro; type: cell-based; conditions: Mycoplasmoides gallisepticum, 144 h; M. gallisepticum S6; 6 days, 37° C.; read-out: MIC
M. suipneumoniae UCD 1 = assay: MIC against mycoplasma in vitro; type: cell-based; conditions: Mesomycoplasma hyopneumoniae, UCD1, 144 h
[11] = test system: Staph. aureus 152 (pen. sens); assay: MIC against veterinary bacteria in vitro; conditions: Staphylococcus aureus, 18 h
Description: as §1

P. mirabilis 889 = assay: MIC against human bacteria in vitro; type: cell-based; conditions: Proteus mirabilis; P. mirabilis 889; 5% chocolated horse blood agar, 18 hours; read-out: MIC
Strep. dysgalactiae SPD1 = assay: MIC against veterinary bacteria in vitro; conditions: Streptococcus dysgalactiae, SPD1, 18 h
Description: as §1

M. hyorhinis ATCC 25021 = assay: MIC against mycoplasma in vitro; type: cell-based; conditions: Mesomycoplasma hyorhinis, ATCC25021, 144 h
[12] = test system: M. bovigenitalium ATCC 14173; assay: MIC against mycoplasma in vitro; type: cell-based; conditions: 144 h
M. suipneumoniae HK(2) = assay: MIC against mycoplasma in vitro; type: cell-based; conditions: Mesomycoplasma hyopneumoniae, 144 h
Strep. pneumoniae CN33 = assay: MIC against human bacteria in vitro; type: cell-based; conditions: Streptococcus pneumoniae; Strep. pneumoniae CN33; 5% chocolated horse blood agar, 18 hours; read-out: MIC
[13] = 144 h, M. suipneumoniae Str. 11, 6 days, 37° C., read-out: MIC
[14] = M. suipneumoniae NCTC 10110, 6 days, 37° C., read-out: MIC
[15] = M. suipneumoniae TAM 6N, 6 days, 37° C., read-out: MIC
[16] = M. hyorhinis ATCC 23234, 6 days, 37° C., read-out: MIC
[17] = M. suipneumoniae J2206/183^b, 6 days, 37° C., read-out: MIC
[18] = M. suipneumoniae MS 16, 6 days, 37° C., read-out: MIC
[19] = M. suipneumoniae JF 435, 6 days, 37° C., read-out: MIC
[20] = M. suipneumoniae UCD 1, 6 days, 37° C., read-out: MIC
[21] = M. hyorhinis ATCC 25021, 6 days, 37° C., read-out: MIC
[22] = M. suipneumoniae HK(2), 6 days, 37° C., read-out: MIC

C/C(=C\c1ncc(Cc2ccccc2)o1)C[C@@H]1OC[C@H](C[C@@H]2O[C@H]2[C@@H](C)[C@H](C)O)[C@@H](O)[C@H]1O [Example 27, 5-Benzyl-2-(1-normon-2-yl)oxazole A]
MIC (Bord. bronchiseptica B08): > 80 µg/mL
MIC (M. bovis NCTC 10131): 0.05 µg/mL (≈ 0.109 µM)
MIC [1]: 5 µg/mL (≈ 10.9 µM)
MIC (Past. multocida PA2): 5 µg/mL (≈ 10.9 µM)
MIC (Strep. faecalis I): > 64 µg/mL
MIC (M. dispar NCTC 10125): 2.5 µg/mL (≈ 5.46 µM)
MIC (S. typhimurium S18): > 80 µg/mL
MIC (M. suipneumoniae Str. 11; [13]): 5 µg/mL (≈ 10.9 µM)
MIC [2, 14]: 10 µg/mL (≈ 21.9 µM)
MIC (Strep. agalactiae 2788-B): 16 µg/mL (≈ 35 µM)
MIC (Staph. aureus Oxford [3]): 8 µg/mL (≈ 17.5 µM)
MIC (M. suipneumoniae TAM 6N; [15]): 10 µg/mL (≈ 21.9 µM)
MIC [4]: > 80 µg/mL
MIC [5]: 32 µg/mL (≈ 69.9 µM)
MIC (Staph. aureus Oxford [6]): 10 µg/mL (≈ 21.9 µM)
MIC (Sarcina lutea 8340): > 64 µg/mL
MIC (K. aerogenes A): > 64 µg/mL
MIC (M. hyorhinis ATCC 23234; [16]): 10 µg/mL (≈ 21.9 µM)
MIC [7]: > 80 µg/mL
MIC (M. suipneumoniae NB12; NB12, 144 h): 5 µg/mL (≈ 10.9 µM)
MIC (Staph. aureus W2827): 16 µg/mL (≈ 35 µM)
MIC [8, 17]: 10 µg/mL (≈ 21.9 µM)
MIC (M. suipneumoniae MS 16; [18]): 5 µg/mL (≈ 10.9 µM)
MIC [9]: 2.5 µg/mL (≈ 5.46 µM)
MIC [10]: > 80 µg/mL
MIC (M. suipneumoniae JF 435; [19]): 10 µg/mL (≈ 21.9 µM)
MIC (M. gallisepticum S6): > 10 µg/mL
MIC (M. suipneumoniae UCD 1; [20]): 10 µg/mL (≈ 21.9 µM)
MIC [11]: 10 µg/mL (≈ 21.9 µM)
MIC (P. mirabilis 889): > 64 µg/mL
MIC (Strep. dysgalactiae SPD1): 2.5 µg/mL (≈ 5.46 µM)
MIC (M. hyorhinis ATCC 25021; [21]): 5 µg/mL (≈ 10.9 µM)
MIC [12]: 0.25 µg/mL (≈ 0.546 µM)
MIC (M. suipneumoniae HK(2); [22]): 10 µg/mL (≈ 21.9 µM)

C/C(=C\c1cc(-c2ccccc2)no1)C[C@@H]1OC[C@H](C[C@@H]2O[C@H]2[C@@H](C)[C@H](C)O)[C@@H](O)[C@H]1O [Example 31, 5-(1-Normon-2-yl)-3-phenylisoxazole A]
MIC (Bord. bronchiseptica B08): > 80 µg/mL
MIC (M. bovis NCTC 10131): 1 µg/mL (≈ 2.25 µM)
MIC (Strep. faecalis I): > 128 µg/mL
MIC (M. dispar NCTC 10125): 2.5 µg/mL (≈ 5.64 µM)
MIC (S. typhimurium S18): > 80 µg/mL
MIC (M. suipneumoniae Str. 11; [13]): 5 µg/mL (≈ 11.3 µM)
MIC [2, 14]: 10 µg/mL (≈ 22.5 µM)
MIC (Strep. agalactiae 2788-B): > 128 µg/mL
MIC (Staph. aureus Oxford [3]): 64 µg/mL (≈ 144 µM)
MIC (M. suipneumoniae TAM 6N; [15]): 10 µg/mL (≈ 22.5 µM)
MIC [4]: > 80 µg/mL
MIC [5]: 64 µg/mL (≈ 144 µM)
MIC (Staph. aureus Oxford [6]): 20 µg/mL (≈ 45.1 µM)
MIC (K. aerogenes A): > 128 µg/mL
MIC (M. hyorhinis ATCC 23234; [16]): 5 µg/mL (≈ 11.3 µM)
MIC [7]: > 80 µg/mL
MIC (M. suipneumoniae NB12; 144 h, M. suipneumoniae NB12, Friis broth, 0.9% agarose, 6 days, 37° C., read-out: MIC): 10 µg/mL (≈ 22.5 µM)
MIC (Staph. aureus W2827): 128 µg/mL (≈ 289 µM)
MIC [8, 17]: 10 µg/mL (≈ 22.5 µM)
MIC (Strep. pneumoniae CN33): > 128 µg/mL
MIC (M. suipneumoniae MS 16; [18]): 5 µg/mL (≈ 11.3 µM)
MIC [9]: 10 µg/mL (≈ 22.5 µM)
MIC [10]: > 80 µg/mL
MIC (M. suipneumoniae JF 435; [19]): 10 µg/mL (≈ 22.5 µM)
MIC (M. gallisepticum S6): > 10 µg/mL
MIC (M. suipneumoniae UCD 1; [20]): 10 µg/mL (≈ 22.5 µM)
MIC [11]: 10 µg/mL (≈ 22.5 µM)
MIC (P. mirabilis 889): > 128 µg/mL
MIC (Strep. dysgalactiae SPD1): > 80 µg/mL
MIC (M. hyorhinis ATCC 25021; [21]): 5 µg/mL (≈ 11.3 µM)
MIC ([12]; M. bovigenitalium ATCC 14173, 6 days, 37° C., read-out: MIC): 5 µg/mL (≈ 11.3 µM)
MIC (M. suipneumoniae HK(2); [22]): 10 µg/mL (≈ 22.5 µM)

C/C(=C\c1cc(-c2ccccc2)on1)C[C@@H]1OC[C@H](C[C@@H]2O[C@H]2[C@@H](C)[C@H](C)O)[C@@H](O)[C@H]1O [Example 34, 3-(1-Normon-2-yl)-5-phenylisoxazole A]
MIC (Bord. bronchiseptica B08): > 80 µg/mL
MIC (M. bovis NCTC 10131): 0.25 µg/mL (≈ 0.564 µM)
MIC (Strep. faecalis I): > 128 µg/mL
MIC (M. dispar NCTC 10125; M. dispar NCTC 10125, 6 days, 37° C., read-out: MIC): 0.5 µg/mL (≈ 1.13 µM)
MIC (S. typhimurium S18): > 80 µg/mL
MIC (M. suipneumoniae Str. 11; STR.11, 144 h): 1 µg/mL (≈ 2.25 µM)
MIC [2]: 2.5 µg/mL (≈ 5.64 µM)
MIC (Strep. agalactiae 2788-B): 64 µg/mL (≈ 144 µM)
MIC (Staph. aureus Oxford [3]): 8 µg/mL (≈ 18 µM)
MIC (M. suipneumoniae TAM 6N): 2.5 µg/mL (≈ 5.64 µM)
MIC [4]: > 80 µg/mL
MIC [5]: 64 µg/mL (≈ 144 µM)
MIC (Staph. aureus Oxford [6]): 5 µg/mL (≈ 11.3 µM)
MIC (K. aerogenes A): > 128 µg/mL
MIC (M. hyorhinis ATCC 23234): 2.5 µg/mL (≈ 5.64 µM)
MIC [7]: > 80 µg/mL
MIC (M. suipneumoniae NB12; NB12, 144 h): 2.5 µg/mL (≈ 5.64 µM)
MIC (Staph. aureus W2827): 16 µg/mL (≈ 36.1 µM)
MIC [8]: 2.5 µg/mL (≈ 5.64 µM)
MIC (Strep. pneumoniae CN33): 64 µg/mL (≈ 144 µM)
MIC (M. suipneumoniae MS 16): 1 µg/mL (≈ 2.25 µM)
MIC [9]: 2.5 µg/mL (≈ 5.64 µM)
MIC [10]: 80 µg/mL (≈ 180 µM)
MIC (M. suipneumoniae JF 435): 2.5 µg/mL (≈ 5.64 µM)
MIC (M. gallisepticum S6): > 10 µg/mL
MIC (M. suipneumoniae UCD 1): 2.5 µg/mL (≈ 5.64 µM)
MIC [11]: 2.5 µg/mL (≈ 5.64 µM)
MIC (P. mirabilis 889): > 128 µg/mL
MIC (Strep. dysgalactiae SPD1): 10 µg/mL (≈ 22.5 µM)
MIC (M. hyorhinis ATCC 25021): 1 µg/mL (≈ 2.25 µM)
MIC [12]: 1 µg/mL (≈ 2.25 µM)
MIC (M. suipneumoniae HK(2)): 2.5 µg/mL (≈ 5.64 µM)
